# In patent US9051265B2, “N-benzylindole modulators of PPARG” (The Scripps Research Institute, priority 2011, dated 2015):
# System: PPARG (murine PPARg2 or full-length human PPARg)
# Test: Cell-based PPRE-luciferase transactivation assay in COS-1 cells
structure (smiles),measurement,value
CN(CCOc1ccc(CC2SC(=O)NC2=O)cc1)c1ccccn1 (stereo not shown) [rosiglitazone],activation of the PPRE reporter,about 5 fold
